{
  "source": "patent US6558900B2",
  "about": "“Regulation of apoptosis and in vitro model for studies thereof” (Emory University, priority 1996, dated 2003)",
  "key": {"CPP32 [1]": {"test_system": "CPP32", "assay": "dATP and cytochrome c-dependent activation of CPP32 in S-100 from human embryonic kidney 293 cells", "assay_type": "biochemical", "experimental": "(§1) FIG. 8 illustrates dATP and cytochrome c-dependent activation of CPP32 in S-100 cytosol preparations (immunodepleted of cytochrome c) from human embryonic kidney 293 cells and human monoblastic U937 cells. CPP32 activation reactions were carried out as described in FIG. 7 except 25 μg of S-100 was used in each reaction. 1 mM of dATP was present in lanes 2, 4, 6, 8, 10, and 12. Lanes 1 and 2, S-100 fraction from 293 cells; Lanes 3-4, S-100 fraction from 293 cells immunodepleted of cytochrome c; lanes 5 and 6, S-100 fraction from 293 cells immunodepleted of cytochrome c supplemented with 0.2 μg of Apaf-2 purified through the Mono S column step; Lanes 7 and 8, S-100 fraction from U937 cells; […], S-100 fraction from U937 cells immunodepleted of cytochrome c; lanes 11,12, S-100 fraction from U937 cells immunodepleted of cytochrome c supplemented with 0.2 μg of Apaf-2 purified through Mono S column step.\n(§2) To investigate whether the dATP and cytochrome c-dependent activation of CPP32 is a general phenomenon, cytosols were prepared from human embryonic kidney 293 cells and human monoblastic leukemia U937 cells.\n(§3) 293 cells were set up at 5×10^5 cells per 100 mm dish in medium A [Dulbecco's modified Eagle's medium (DMEM) supplemented with 10% (v/v) heat-inactivated fetal calf serum, 100 U/ml penicillin and 100 μg/ml streptomycin sulfate]. […]"}, "CPP32 [2]": {"test_system": "CPP32", "assay": "dATP and cytochrome c-dependent activation of CPP32 in S-100 from human monoblastic U937 cells", "assay_type": "biochemical", "experimental": "as §1, §2, §3"}, "CPP32 [3]": {"test_system": "CPP32", "assay": "Apaf-2 activity: recombining with phosphocellulose flow through fraction (Apaf-1) and 35S-labeled CPP32", "assay_type": "biochemical, human", "details": "phosphocellulose fraction alone, with or without 1 mM dATP", "experimental": "FIG. 3 illustrates fractionation and reconstitution of dATP-dependent activation of CPP32 by phosphocellulose chromatography. HeLa cell S-100 was subjected to phosphocellulose chromatography and the column flow through and bound material were collected as described in the Examples. Aliquots (10 μl) of HeLa S-100 (50 μg) (lanes 1 and 2), phosphocellulose flow through fraction (PC-FT) (lanes 3 and 4), phosphocellulose bound fraction (PC-B) (lanes 5 and 6), and the mixture of phosphocellulose flow through and bound material (lanes 7 and 8) were incubated with aliquots of 3 μl in vitro translated, ^35S-labeled CPP32 at 30° C. for 1 hr in the absence (lanes 1,3,5,7) or presence (lanes 2,4,6,8) of 1 mM dATP. The samples were subjected to SDS-PAGE, transferred to a nitrocellulose filter, and the filter was exposed to film for 16 hours at room temperature.\nThe Apaf-2 activity that bound to the phosphocellulose column was purified through the Mono S column as described in Example 7. […] In FIG. 4B, aliquots (30 μl) of the Mono-S fractions were subjected to 15% SDS-PAGE and the proteins were visualized by silver staining.\nAliquots of 0.2 μg of Apaf-2 purified through the Mono S column (lanes 1, 2), cytochrome c from bovine heart (lanes 3, 4), and rat liver (lanes 5, 6) were incubated with aliquots of 10 μl phosphocellulose flowthrough fraction and 3 μl in vitro translated, 35S-labeled CPP32 at 30° C. for 1 hr in a final volume of 20 μl buffer A in the absence (lanes 1,3,5) or presence of (lanes 2, 4, 6) 1 mM dATP. Samples were subjected to SDS-PAGE and transferred to a nitrocellulose filter which was then exposed to a film for 16 hr at room temperature.\nTo isolate the protein(s) required for the activation of CPP32, HeLa S-100 was loaded onto a phosphocellulose column, and the flow-through and bound fractions were collected. […] When the flowthrough and bound fractions were mixed, CPP32-activating activity was restored (lanes 7-8). […] The factor(s) that flow through the phosphocellulose column are designated apoptotic protease activating factor-1 (Apaf-1) and the factor that bound to the column is designated apoptotic protease activating factor-2 (Apaf-2). It is understood that “Apaf-1” may represent more than one protein or it may represent a combination of protein(s) and other factors.\nApaf-2 activity was assayed by recombining with Apaf-1 after purification by the following steps. First, the Apaf-2 fraction was subjected to 50% ammonium sulfate precipitation. All of the activity remained in the supernatant while most of the protein precipitated (Table I). The supernatant was loaded onto a phenyl-sepharose (hydrophobic interaction) column and the activity was eluted with 1 M ammonium sulfate. The eluate was passed through a gel filtration column; active fractions were subjected to sequential Mono Q (anion exchange) and Mono S (cation exchange) chromatography. The Apaf-2 activity flowed through the Mono Q column, and the flow through was directly loaded onto the Mono S column. Bound Apaf-2 activity was then eluted with a 100-300 mM NaCl linear salt gradient. The fractions from the Mono S column were collected and assayed. […] The active fractions were analyzed by SDS-PAGE (FIG. 4B). A protein of apparent molecular mass of 15 kDa was co-eluted with the activity. No other proteins were detected by silver staining in the active Apaf-2 fractions.\nCPP32 was translated and purified as described above. […]"}},
  "data": [
    {"molecule": "Nc1ncnc2c1ncn2[C@H]1C[C@H](O)[C@@H](COP(=O)(O)OP(=O)(O)OP(=O)(O)O)O1", "note": "[dATP, deoxyadenosine-5-triphosphate]", "values": [
      {"measurement": "dATP-dependent CPP32 activating activity of S-100", "setting": "CPP32 [1]; 293 cell S-100, 1 mM dATP", "value": "contained a dATP-dependent CPP32 activating activity"},
      {"measurement": "dATP-dependent CPP32 activating activity of S-100", "setting": "CPP32 [2]; U937 cell S-100, 1 mM dATP", "value": "contained a dATP-dependent CPP32 activating activity"}
    ]},
    {"molecule": "Apaf-2: 15 kDa factor bound to phosphocellulose column, purified from HeLa S-100, identified as human cytochrome c", "values": [
      {"measurement": "dATP-dependent activation of CPP32 by fraction alone", "setting": "CPP32 [3]", "value": "Neither fraction alone supported dATP-dependent activation of CPP32"},
      {"measurement": "restoration of CPP32 activating activity", "setting": "CPP32 [1]; 293 cell S-100 immunodepleted of cytochrome c, 0.2 μg, 1 mM dATP", "value": "restored the activity"},
      {"measurement": "restoration of CPP32 activating activity", "setting": "CPP32 [2]; U937 cell S-100 immunodepleted of cytochrome c, 0.2 μg, 1 mM dATP", "value": "restored the activity"}
    ]}
  ]
}
